{"source": "paper PMC4798913", "about": "(ACS chemical biology, 2015)", "key": {"[1]": {"target": "PRMT5 (Homo sapiens, UniProt O14744)", "sequence (O14744 whole entry)": "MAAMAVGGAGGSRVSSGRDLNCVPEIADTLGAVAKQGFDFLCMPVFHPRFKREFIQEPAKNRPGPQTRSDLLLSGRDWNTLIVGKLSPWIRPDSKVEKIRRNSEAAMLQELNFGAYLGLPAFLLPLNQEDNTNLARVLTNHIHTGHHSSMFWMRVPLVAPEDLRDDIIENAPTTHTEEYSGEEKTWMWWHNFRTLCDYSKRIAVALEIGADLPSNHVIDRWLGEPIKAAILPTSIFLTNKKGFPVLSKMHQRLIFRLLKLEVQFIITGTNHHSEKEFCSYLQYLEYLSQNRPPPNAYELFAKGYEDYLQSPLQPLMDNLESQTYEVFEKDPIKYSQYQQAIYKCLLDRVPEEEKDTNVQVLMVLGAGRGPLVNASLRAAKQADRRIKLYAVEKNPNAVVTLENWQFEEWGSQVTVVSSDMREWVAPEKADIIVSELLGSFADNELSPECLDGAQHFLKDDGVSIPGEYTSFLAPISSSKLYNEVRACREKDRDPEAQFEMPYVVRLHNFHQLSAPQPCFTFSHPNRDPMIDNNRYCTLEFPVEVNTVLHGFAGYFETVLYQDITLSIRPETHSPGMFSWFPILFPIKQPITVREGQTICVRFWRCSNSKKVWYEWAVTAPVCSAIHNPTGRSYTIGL", "sequence (Q9BQA1 whole entry partner)": "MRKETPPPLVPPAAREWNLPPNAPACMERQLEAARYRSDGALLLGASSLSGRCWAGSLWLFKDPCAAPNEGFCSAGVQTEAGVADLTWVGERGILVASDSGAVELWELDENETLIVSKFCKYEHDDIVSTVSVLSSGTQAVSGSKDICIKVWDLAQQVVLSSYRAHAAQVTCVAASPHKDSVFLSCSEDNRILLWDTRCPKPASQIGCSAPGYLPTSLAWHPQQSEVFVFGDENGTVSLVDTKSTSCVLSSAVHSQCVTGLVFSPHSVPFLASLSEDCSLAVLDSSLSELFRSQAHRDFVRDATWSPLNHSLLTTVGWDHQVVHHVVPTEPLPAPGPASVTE", "assay": "PRMT biochemical scintillation proximity assay", "details": "for inhibition of type II PRMT (PRMT5): concentration not given"}, "[2]": {"target": "T1, PRMT9 (Homo sapiens, UniProt Q6P2P2)", "T1 sequence (Q6P2P2 1-845)": "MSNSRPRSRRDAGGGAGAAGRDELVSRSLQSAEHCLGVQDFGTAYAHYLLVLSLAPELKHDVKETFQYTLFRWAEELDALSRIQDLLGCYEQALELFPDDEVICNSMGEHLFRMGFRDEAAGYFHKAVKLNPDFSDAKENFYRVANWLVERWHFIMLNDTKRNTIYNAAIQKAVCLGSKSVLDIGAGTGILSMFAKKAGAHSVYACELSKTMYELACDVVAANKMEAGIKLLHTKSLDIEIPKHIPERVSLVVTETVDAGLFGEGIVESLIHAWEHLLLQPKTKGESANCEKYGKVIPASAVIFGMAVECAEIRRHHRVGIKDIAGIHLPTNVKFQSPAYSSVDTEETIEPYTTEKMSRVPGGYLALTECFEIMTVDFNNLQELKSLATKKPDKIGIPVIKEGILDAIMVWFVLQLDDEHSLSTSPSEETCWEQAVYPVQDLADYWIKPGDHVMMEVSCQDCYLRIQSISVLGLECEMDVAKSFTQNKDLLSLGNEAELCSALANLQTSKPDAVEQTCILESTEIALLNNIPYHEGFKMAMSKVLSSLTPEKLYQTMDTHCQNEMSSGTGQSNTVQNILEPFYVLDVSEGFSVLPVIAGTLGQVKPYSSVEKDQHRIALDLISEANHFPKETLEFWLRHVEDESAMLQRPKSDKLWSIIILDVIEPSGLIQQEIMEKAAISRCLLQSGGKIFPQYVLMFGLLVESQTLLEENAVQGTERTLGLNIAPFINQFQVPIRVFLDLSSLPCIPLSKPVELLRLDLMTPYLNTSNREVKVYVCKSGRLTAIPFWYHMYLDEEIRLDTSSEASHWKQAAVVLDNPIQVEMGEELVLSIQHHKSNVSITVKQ", "assay": "PRMT biochemical scintillation proximity assay", "details": "for inhibition of type II PRMT (PRMT9): concentration not given"}, "[3]": {"target": "T2, PRMT7 (Homo sapiens, UniProt Q9NVM4)", "T2 sequence (Q9NVM4 1-692)": "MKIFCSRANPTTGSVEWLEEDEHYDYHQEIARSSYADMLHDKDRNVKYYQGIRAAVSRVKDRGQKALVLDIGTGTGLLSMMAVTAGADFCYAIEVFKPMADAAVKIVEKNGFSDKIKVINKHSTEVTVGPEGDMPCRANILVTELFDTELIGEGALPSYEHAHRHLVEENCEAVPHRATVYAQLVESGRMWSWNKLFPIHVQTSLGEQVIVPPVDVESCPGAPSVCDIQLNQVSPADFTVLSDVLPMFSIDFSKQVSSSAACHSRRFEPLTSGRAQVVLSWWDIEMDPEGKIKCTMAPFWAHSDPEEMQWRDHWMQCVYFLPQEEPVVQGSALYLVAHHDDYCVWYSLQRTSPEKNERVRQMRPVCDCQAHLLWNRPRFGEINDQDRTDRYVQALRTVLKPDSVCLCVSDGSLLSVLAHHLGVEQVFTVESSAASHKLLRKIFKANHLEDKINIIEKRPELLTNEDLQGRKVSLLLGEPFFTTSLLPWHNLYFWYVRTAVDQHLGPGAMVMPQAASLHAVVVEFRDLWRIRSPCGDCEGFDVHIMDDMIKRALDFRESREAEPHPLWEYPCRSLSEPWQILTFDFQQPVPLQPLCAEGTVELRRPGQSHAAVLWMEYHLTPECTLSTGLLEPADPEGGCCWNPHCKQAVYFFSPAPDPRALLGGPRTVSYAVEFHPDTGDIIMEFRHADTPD", "assay": "PRMT biochemical scintillation proximity assay", "details": "for inhibition of type III PRMT (PRMT7): concentration not given"}, "[4]": {"target": "T3, PRMT4 (Homo sapiens, UniProt Q86X55)", "T3 sequence (Q86X55 1-608)": "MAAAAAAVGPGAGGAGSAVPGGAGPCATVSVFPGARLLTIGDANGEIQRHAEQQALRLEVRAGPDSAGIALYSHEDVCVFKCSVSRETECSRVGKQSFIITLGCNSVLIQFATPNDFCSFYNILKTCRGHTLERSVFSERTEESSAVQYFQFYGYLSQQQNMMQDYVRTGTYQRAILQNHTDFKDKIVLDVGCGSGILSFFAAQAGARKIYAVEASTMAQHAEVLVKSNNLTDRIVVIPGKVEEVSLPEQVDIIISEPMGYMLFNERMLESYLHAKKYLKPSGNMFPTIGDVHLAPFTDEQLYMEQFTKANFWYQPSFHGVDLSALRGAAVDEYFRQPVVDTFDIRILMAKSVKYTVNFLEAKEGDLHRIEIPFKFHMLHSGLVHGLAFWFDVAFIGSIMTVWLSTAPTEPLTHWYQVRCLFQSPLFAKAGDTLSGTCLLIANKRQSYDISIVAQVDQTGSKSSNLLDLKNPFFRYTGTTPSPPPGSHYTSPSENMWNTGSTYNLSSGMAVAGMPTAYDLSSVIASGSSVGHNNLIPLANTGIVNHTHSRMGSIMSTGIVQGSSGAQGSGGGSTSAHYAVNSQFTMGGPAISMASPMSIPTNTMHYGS", "assay": "PRMT biochemical scintillation proximity assay", "details": "read-out: IC50 PRMT4; substrate at Km; triplicate, Mean ± SD; NI: no inhibition"}, "[5]": {"test_system": "MCF7 cells", "assay": "Global arginine methylation Western blot", "assay_type": "cell-based", "details": "two days (48 h)"}, "[6]": {"target": "PRMT3 (Homo sapiens, UniProt O60678)", "sequence (O60678 whole entry)": "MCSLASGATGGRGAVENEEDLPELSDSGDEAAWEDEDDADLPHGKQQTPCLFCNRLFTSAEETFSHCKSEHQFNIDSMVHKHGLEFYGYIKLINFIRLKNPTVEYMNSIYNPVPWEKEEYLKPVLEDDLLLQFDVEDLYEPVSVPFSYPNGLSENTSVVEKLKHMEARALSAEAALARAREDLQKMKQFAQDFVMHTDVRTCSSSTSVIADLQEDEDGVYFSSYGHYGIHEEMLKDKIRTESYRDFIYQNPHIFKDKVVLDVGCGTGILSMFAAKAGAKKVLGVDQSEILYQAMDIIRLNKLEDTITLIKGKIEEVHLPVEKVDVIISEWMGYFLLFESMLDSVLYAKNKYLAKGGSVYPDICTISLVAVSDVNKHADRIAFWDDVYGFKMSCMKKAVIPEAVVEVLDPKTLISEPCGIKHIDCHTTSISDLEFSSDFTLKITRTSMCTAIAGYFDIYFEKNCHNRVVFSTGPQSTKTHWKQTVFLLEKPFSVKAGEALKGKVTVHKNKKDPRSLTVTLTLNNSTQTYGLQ", "assay": "PRMT biochemical scintillation proximity assay", "details": "for IC50: read-out: IC50 PRMT3, substrate at Km, triplicate, Mean ± SD, NI: no inhibition"}, "[7]": {"target": "T4, PRMT1 (Homo sapiens, UniProt Q99873)", "T4 sequence (Q99873 whole entry)": "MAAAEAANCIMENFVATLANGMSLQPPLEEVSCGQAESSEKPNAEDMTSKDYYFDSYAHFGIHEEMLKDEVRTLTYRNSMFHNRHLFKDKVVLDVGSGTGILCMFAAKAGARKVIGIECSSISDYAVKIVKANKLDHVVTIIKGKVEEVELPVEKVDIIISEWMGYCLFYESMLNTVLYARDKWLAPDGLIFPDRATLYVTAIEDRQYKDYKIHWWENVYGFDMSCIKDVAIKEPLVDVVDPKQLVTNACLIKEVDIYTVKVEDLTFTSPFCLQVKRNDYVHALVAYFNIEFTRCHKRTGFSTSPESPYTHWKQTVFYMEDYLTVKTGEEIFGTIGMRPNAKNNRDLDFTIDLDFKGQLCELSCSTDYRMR", "assay": "PRMT biochemical scintillation proximity assay", "details": "read-out: IC50 PRMT1; substrate at Km; triplicate, Mean ± SD; NI: no inhibition"}, "[8]": {"target": "T4, PRMT1", "assay": "Cellular PRMT1 assay", "assay_type": "cell-based", "details": "MCF7 cells, 48 h"}, "[9]": {"test_system": "eight different cell lines", "assay": "Cell growth assay", "assay_type": "cell-based", "details": "96 h treatment"}, "[10]": {"test_system": "HEK293 cells", "assay": "Global arginine methylation Western blot", "details": "two days"}, "[11]": {"test_system": "HEK293 cells", "assay": "Cell growth assay", "assay_type": "cell-based", "details": "1 μM, 4-day and long-term (10 days) treatment"}, "[12]": {"test_system": "9 methyllysine or methylarginine reader proteins", "assay": "DSF or DSLS binding to reader proteins"}, "[13]": {"test_system": "25 PKMTs and DNMTs, and 3 histone lysine demethylases", "assay": "Selectivity panel of methyltransferases and demethylases", "assay_type": "biochemical", "details": "up to 10 μM (tested at 1 μM and 10 μM)"}, "[14]": {"target": "PRMT6 (Homo sapiens, UniProt Q96LA8)", "sequence (Q96LA8 whole entry)": "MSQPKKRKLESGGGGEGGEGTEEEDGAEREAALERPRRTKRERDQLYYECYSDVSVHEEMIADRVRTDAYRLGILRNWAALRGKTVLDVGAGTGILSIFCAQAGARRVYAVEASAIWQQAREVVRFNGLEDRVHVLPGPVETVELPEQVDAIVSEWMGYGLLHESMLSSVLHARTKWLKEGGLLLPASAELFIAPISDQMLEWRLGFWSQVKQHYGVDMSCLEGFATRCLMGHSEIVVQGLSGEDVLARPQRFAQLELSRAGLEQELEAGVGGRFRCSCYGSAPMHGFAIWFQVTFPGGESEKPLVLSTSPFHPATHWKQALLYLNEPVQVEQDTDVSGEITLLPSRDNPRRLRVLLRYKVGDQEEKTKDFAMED", "details": "100 μM SAM; PRMT6 alone Tm = 52 °C"}}}
{"smiles": "CN(CCN)Cc1n[nH]nc1-c1cccc(C(F)(F)F)c1", "note": "[Compound 1]", "values": [{"measurement": "inhibition of type II PRMT (PRMT5)", "setting": "[1]", "result": "did not inhibit"}, {"measurement": "inhibition of type II PRMT (PRMT9)", "setting": "[2]", "result": "did not inhibit"}, {"measurement": "inhibition of type III PRMT (PRMT7)", "setting": "[3]", "result": "did not inhibit"}]}
{"smiles": "CN(CCN)Cc1c[nH]cc1-c1cccc(C(F)(F)F)c1", "note": "[Compound 2]", "values": [{"measurement": "inhibition of type II PRMT (PRMT5)", "setting": "[1]", "result": "did not inhibit"}, {"measurement": "inhibition of type II PRMT (PRMT9)", "setting": "[2]", "result": "did not inhibit"}, {"measurement": "inhibition of type III PRMT (PRMT7)", "setting": "[3]", "result": "did not inhibit"}]}
{"smiles": "CC(C)Oc1ccc(-c2c[nH]cc2CN(C)CC(N)=O)cc1", "note": "[Compound 5]", "values": [{"measurement": "IC50", "setting": "[4]", "result": "> 10", "unit": "µM"}, {"measurement": "global levels of arginine asymmetric dimethylation (Rme2a)", "setting": "[5]", "result": "did not change"}, {"measurement": "global levels of arginine monomethylation (Rme1)", "setting": "[5]", "result": "did not change"}, {"measurement": "global levels of arginine symmetric dimethylation (Rme2s)", "setting": "[5]", "result": "did not change"}, {"measurement": "IC50", "setting": "[6]", "result": "> 10", "unit": "µM"}, {"measurement": "IC50", "setting": "[7]", "result": "> 10", "unit": "µM"}, {"measurement": "effect on cellular levels of H4R3me2a", "setting": "[8]", "result": "did not decrease"}]}
{"smiles": "CC(C)Oc1ccc(-c2c[nH]cc2C(=O)N(C)CCN)cc1", "note": "[Compound 6]", "values": [{"measurement": "IC50", "setting": "[4]", "result": "> 10", "unit": "µM"}, {"measurement": "global levels of arginine asymmetric dimethylation (Rme2a)", "setting": "[5]", "result": "did not change"}, {"measurement": "global levels of arginine monomethylation (Rme1)", "setting": "[5]", "result": "did not change"}, {"measurement": "global levels of arginine symmetric dimethylation (Rme2s)", "setting": "[5]", "result": "did not change"}, {"measurement": "IC50", "setting": "[6]", "result": "> 10", "unit": "µM"}, {"measurement": "IC50", "setting": "[7]", "result": "> 10", "unit": "µM"}, {"measurement": "effect on cellular levels of H4R3me2a", "setting": "[8]", "result": "did not decrease"}]}
{"smiles": "CC(C)Oc1ccc(-c2c[nH]cc2CN(C)CCN)cc1", "note": "[MS023]", "values": [{"measurement": "effect on cell growth", "setting": "[9]; concentrations up to 1 μM, all lines except HEK293", "result": "did not significantly impact cell growth"}, {"measurement": "effect on cell growth", "setting": "[9]; higher concentrations (e.g., 10 μM, 50 μM)", "result": "decreased cell growth in most of tested cell lines"}, {"measurement": "global levels of arginine asymmetric dimethylation (Rme2a)", "setting": "[10]", "result": "significant decrease"}, {"measurement": "global levels of arginine monomethylation (Rme1)", "setting": "[10]", "result": "increase"}, {"measurement": "global levels of arginine symmetric dimethylation (Rme2s)", "setting": "[10]", "result": "increase"}, {"measurement": "inhibition of PRMT5 (type II)", "setting": "[1]; concentrations up to 10 μM", "result": "did not inhibit"}, {"measurement": "effect on cell growth", "setting": "[11]", "result": "greatly affecting cell growth"}, {"measurement": "global levels of arginine asymmetric dimethylation (Rme2a)", "setting": "[5]", "result": "significant decrease"}, {"measurement": "global levels of arginine monomethylation (Rme1)", "setting": "[5]", "result": "increase"}, {"measurement": "global levels of arginine symmetric dimethylation (Rme2s)", "setting": "[5]", "result": "increase"}, {"measurement": "pattern of inhibition (MOA) for PRMT3", "setting": "[6]; IC50 at different SAM and peptide concentrations", "result": "noncompetitive with the peptide substrate but uncompetitive with the cofactor SAM"}, {"measurement": "inhibition of PRMT9 (type II)", "setting": "[2]; concentrations up to 10 μM", "result": "did not inhibit"}, {"measurement": "binding to 9 methyllysine or methylarginine reader proteins", "setting": "[12]", "result": "did not show binding"}, {"measurement": "inhibition of 25 PKMTs and DNMTs and 3 histone lysine demethylases", "setting": "[13]", "result": "did not inhibit"}, {"measurement": "inhibition of PRMT7 (type III)", "setting": "[3]; concentrations up to 10 μM", "result": "did not inhibit"}]}
{"smiles": "CC(C)Oc1ccc(-c2c[nH]cc2CN(C)CCO)cc1", "note": "[MS094]", "values": [{"measurement": "IC50", "setting": "[4]", "result": "> 10", "unit": "µM"}, {"measurement": "global levels of arginine asymmetric dimethylation (Rme2a)", "setting": "[5]", "result": "did not change"}, {"measurement": "global levels of arginine monomethylation (Rme1)", "setting": "[5]", "result": "did not change"}, {"measurement": "global levels of arginine symmetric dimethylation (Rme2s)", "setting": "[5]", "result": "did not change"}, {"measurement": "IC50", "setting": "[6]", "result": "> 10", "unit": "µM"}, {"measurement": "IC50", "setting": "[7]", "result": "> 10", "unit": "µM"}, {"measurement": "effect on cellular levels of H4R3me2a", "setting": "[8]", "result": "did not decrease"}]}
{"smiles": "C[S+](CC[C@H](N)C(=O)O)C[C@H]1O[C@@H](n2cnc3c(N)ncnc32)[C@H](O)[C@@H]1O", "note": "(stereo partly drawn) [SAM, S-5′-adenosyl-L-methionine]", "values": [{"measurement": "ΔTm PRMT6 (DSF)", "setting": "[14]", "result": 1.6, "unit": "°C"}]}
